Laboratory results taken from ChEMBL document CHEMBL1132096, “Structure-related enhancing activity of escins Ia, Ib, IIa and IIb on magnesium absorption in mice” (1999).

Tests used:
Mus musculus [1] = experiment: Increased Magnesium ion level in 0.5 M MgSO4 loaded ([…] p.o.) mice at a concentration of 5 mg/kg administered perorally; type: functional; settings: route oral
Mus musculus [2] = experiment: Serum Magnesium ion level in MgSO4 unloaded mice at a concentration of 25 mg/kg administered perorally; type: functional, organism-based; set-up: dose 25 mg/kg
Mus musculus [3] = experiment: Serum Magnesium ion level in 0.5 M MgSO4 loaded ([…] p.o.) mice at a concentration of 5 mg/kg administered perorally; type: functional, organism-based; set-up: dose 5 mg/kg
Mus musculus [4] = experiment: Increased Magnesium ion level in 0.5 M MgSO4 loaded ([…] p.o.) mice at a concentration of 12.5 mg/kg administered perorally; type: functional; settings: route oral
Mus musculus [5] = experiment: Serum Magnesium ion level in 0.5 M MgSO4 loaded ([…] p.o.) mice at a concentration of 25 mg/kg administered perorally.; type: functional, organism-based; set-up: dose 25 mg/kg
Mus musculus [6] = experiment: Serum Magnesium ion level in 0.5 M MgSO4 loaded ([…] p.o.) mice at a concentration of 12.5 mg/kg administered perorally; type: functional, organism-based; set-up: dose 12.5 mg/kg
Mus musculus [7] = experiment: Increased Magnesium ion level in 0.5 M MgSO4 loaded ([…] p.o.) mice at a concentration of 25 mg/kg administered perorally; type: functional; settings: route oral
Mus musculus [8] = experiment: Serum Magnesium ion level in 0.5 M MgSO4 loaded ([…] p.o.) mice at a concentration of 25 mg/kg administered perorally; type: functional, organism-based; set-up: dose 25 mg/kg
Mus musculus [9] = experiment: Increased Magnesium ion level in 0.5 M MgSO4 loaded ([…] p.o.) mice pretreatment with Insulin (1U/kg, s.c) at a concentration of 12.5 mg/kg administered perorally; type: functional; settings: route oral
Mus musculus [10] = experiment: Serum Magnesium ion level in 0.5 M MgSO4 loaded ([…] p.o.) mice pretreatment with Insulin (1U/kg, s.c) at a concentration of 12.5 mg/kg administered perorally; type: functional, organism-based; set-up: dose 12.5 mg/kg
Mus musculus [11] = experiment: Increased Magnesium ion level in 1.67 M MgSO4 loaded ([…] p.o.) mice at a concentration of 50 mg/kg administered perorally; type: functional; settings: route oral
Mus musculus [12] = experiment: Serum Magnesium ion level in 1.67 M MgSO4 loaded ([…] p.o.) mice pretreatment with STZ (100 mg/kg, i.v.) at a concentration of 50 mg/kg administered perorally; type: functional, organism-based; set-up: dose 50 mg/kg
Mus musculus [13] = experiment: Serum Magnesium ion level in 1.67 M MgSO4 loaded ([…] p.o.) mice at a concentration of 50 mg/kg administered perorally; type: functional, organism-based; set-up: dose 50 mg/kg
Mus musculus [14] = experiment: Increased Magnesium ion level in 1.67 M MgSO4 loaded ([…] p.o.) mice pretreatment with STZ (100 mg/kg, i.v.) at a concentration of 50 mg/kg administered perorally; type: functional; settings: route oral
Mus musculus [15] = experiment: Increased Magnesium ion level in 0.5 M MgSO4 loaded ([…]) mice pretreatment with Indomethacin (10 mg/kg, s.c) at a concentration of 12.5 mg/kg administered perorally; type: functional; settings: route oral
Mus musculus [16] = experiment: Serum Magnesium ion level in 0.5 M MgSO4 loaded ([…] p.o.) mice pretreatment with Indomethacin (10 mg/kg, s.c) at a concentration of 12.5 mg/kg administered perorally; type: functional, organism-based; set-up: dose 12.5 mg/kg

Row | SMILES | Increase (Mus musculus [1]) | Serum Mg2+ level (Mus musculus [2]) | Serum Mg2+ level (Mus musculus [3]) | Increase (Mus musculus [4]) | Serum Mg2+ level (Mus musculus [5]) | Serum Mg2+ level (Mus musculus [6]) | Increase (Mus musculus [7]) | Serum Mg2+ level (Mus musculus [8]) | Increase (Mus musculus [9]) | Serum Mg2+ level (Mus musculus [10]) | Increase (Mus musculus [11]) | Serum Mg2+ level (Mus musculus [12]) | Serum Mg2+ level (Mus musculus [13]) | Increase (Mus musculus [14]) | Increase (Mus musculus [15]) | Serum Mg2+ level (Mus musculus [16])
1 | C/C=C(\C)C(=O)O[C@H]1[C@H](OC(C)=O)[C@@]2(CO)C(CC1(C)C)C1=CCC3[C@@]4(C)CC[C@H](O[C@@H]5OC(C(=O)O)C(O[C@@H]6OC(CO)C(O)[C@@H](O)[C@@H]6O)[C@@H](O)[C@@H]5O[C@@H]5OC(CO)C(O)[C@@H](O)[C@@H]5O)[C@](C)(CO)C4CC[C@@]3(C)[C@]1(C)C[C@H]2O (stereo partly specified) | 9.1% | 3.1 | 3.6 | 0% | 3.6 | 3.3 | 9.1% |  |  |  |  |  |  |  |  | 
2 | C/C=C(\C)C(=O)O[C@H]1[C@H](OC(C)=O)[C@@]2(CO)C(CC1(C)C)C1=CCC3[C@@]4(C)CC[C@H](O[C@@H]5O[C@H](C(=O)O)[C@@H](O[C@@H]6O[C@H](CO)[C@@H](O)[C@H](O)[C@H]6O)[C@H](O)[C@H]5O[C@@H]5OC[C@@H](O)[C@H](O)[C@H]5O)[C@](C)(CO)C4CC[C@@]3(C)[C@]1(C)C[C@H]2O (stereo partly specified) [AESCIN] | -6.3% | 3.1 | 3 | -3.1% |  | 3.1 | 12.5% | 3.6 |  |  |  |  |  |  |  | 
3 | CC1(C)CC2C3=CCC4[C@@]5(C)CC[C@H](O[C@@H]6OC(C(=O)O)C(O[C@@H]7OC(CO)C(O)[C@@H](O)[C@@H]7O)[C@@H](O)[C@@H]6O[C@@H]6OCC(O)[C@@H](O)[C@@H]6O)[C@](C)(CO)C5CC[C@@]4(C)[C@]3(C)C[C@@H](O)[C@@]2(CO)[C@@H](O)[C@@H]1O (stereo partly specified) |  |  |  |  |  |  | 3% | 3.4 |  |  |  |  |  |  |  | 
4 | C/C=C(/C)C(=O)O[C@H]1[C@H](OC(C)=O)[C@@]2(CO)C(CC1(C)C)C1=CCC3[C@@]4(C)CC[C@H](O[C@@H]5OC(C(=O)O)C(O[C@@H]6OC(CO)C(O)[C@@H](O)[C@@H]6O)[C@@H](O)[C@@H]5O[C@@H]5OC(CO)C(O)[C@@H](O)[C@@H]5O)[C@](C)(CO)C4CC[C@@]3(C)[C@]1(C)C[C@H]2O (stereo partly specified) | 12.1% | 3.1 | 3.7 | 18.2% |  | 3.9 | 24.2% | 4.1 | 30.8% | 5.1 | 38.6% | 6.3 | 7.9 | 26% | 34.4% | 4.3
